According to patent publication US9738634B2, “Heterocyclic amide compound and herbicide” (SYNGENTA PARTICIPATIONS AG, priority 2013, dated 2017):

Columns and labels:
Assay type in all cases: in vivo
[1] = system: barnyard grass; assay: Test Example 1: weedkilling efficacy, preemergent weed treatment in the submerged state; A: barnyard grass; settings: treatment dosage 252 g/ha
Summary of the method: (§1)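 Pots of alluvial soil were flooded to a 4 cm depth. Mixed weed seeds were sown and 2.5 leaf-stage rice seedlings transplanted. On sowing day, water-diluted emulsion was applied to the water surface (dose in g/ha). After 3 weeks at 25–30 °C, effects were rated.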

[2] = system: black-grass; assay: Test Example 3: weedkilling efficacy through soil treatment; H: black-grass; settings: treatment dosage 315 g/ha
Summary of the method: (§2)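 Crop and weed responses were judged three weeks after a uniform surface spray of the water-diluted emulsion at the given g/ha rate. Seeds sat beneath about 1.5 cm of sterilized diluvial soil, and boxes stood in a greenhouse at 25 to 30° C.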

[3] = system: transplanted rice; assay: Test Example 1: preemergent weed treatment in the submerged state, effect on crop; a: transplanted rice; settings: treatment dosage 252 g/ha
Summary of the method: as §1

[4] = system: directly sown rice; assay: Test Example 3: soil treatment, effect on crop; b: directly sown rice; settings: treatment dosage 315 g/ha
Summary of the method: as §2

[5] = system: wheat; assay: Test Example 3: soil treatment, effect on crop; e: wheat; settings: treatment dosage 315 g/ha
Summary of the method: as §2

[6] = system: bulrush; assay: Test Example 2: weedkilling efficacy, growth period weed treatment in the submerged state; B: bulrush; settings: treatment dosage 252 g/ha
Summary of the method: (§3)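 Weeds treated at the 1-2 leaf stage by application of diluted emulsion onto floodwater (4 cm depth, alluvial soil) at specified g/ha. Grown in greenhouse at 25 to 30° C; herbicidal effect rated three weeks after treatment.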

[7] = system: birds-eye speedwell; assay: Test Example 4: weedkilling efficacy by foliar treatment; p: birds-eye speedwell; settings: treatment dosage 315 g/ha
Summary of the method: (§4)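 Seeds are spot-sown into sterilized diluvial soil and covered with about 1.5 cm of soil. After 14 days' greenhouse growth at 25 to 30° C, plants are sprayed on stems and leaves with diluted emulsion at the stated g/ha rate, then scored at 3 weeks.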

[8] = system: wheat; assay: Test Example 4: foliar treatment, effect on crop; e: wheat; settings: treatment dosage 315 g/ha
Summary of the method: as §4

[9] = system: soybean; assay: Test Example 4: foliar treatment, effect on crop; d: soybean; settings: treatment dosage 315 g/ha
Summary of the method: as §4

[10] = system: oval-leafed pondweed; assay: Test Example 2: weedkilling efficacy, growth period weed treatment in the submerged state; C: oval-leafed pondweed; settings: treatment dosage 252 g/ha
Summary of the method: as §3

[11] = system: bulrush; assay: Test Example 1: weedkilling efficacy, preemergent weed treatment in the submerged state; B: bulrush; settings: treatment dosage 252 g/ha
Summary of the method: as §1

[12] = system: black-grass; assay: Test Example 4: weedkilling efficacy by foliar treatment; H: black-grass; settings: treatment dosage 315 g/ha
Summary of the method: as §4

[13] = system: Italian ryegrass; assay: Test Example 3: weedkilling efficacy through soil treatment; I: Italian ryegrass; settings: treatment dosage 315 g/ha
Summary of the method: as §2

[14] = system: wild oat; assay: Test Example 4: weedkilling efficacy by foliar treatment; G: wild oat; settings: treatment dosage 315 g/ha
Summary of the method: as §4

[15] = system: beet; assay: Test Example 4: foliar treatment, effect on crop; f: beet; settings: treatment dosage 315 g/ha
Summary of the method: as §4

[16] = system: chickweed; assay: Test Example 3: weedkilling efficacy through soil treatment; N: chickweed; settings: treatment dosage 315 g/ha
Summary of the method: as §2

[17] = system: oval-leafed pondweed; assay: Test Example 1: weedkilling efficacy, preemergent weed treatment in the submerged state; C: oval-leafed pondweed; settings: treatment dosage 252 g/ha
Summary of the method: as §1

[18] = system: Indian mallow; assay: Test Example 4: weedkilling efficacy by foliar treatment; K: Indian mallow; settings: treatment dosage 315 g/ha
Summary of the method: as §4

[19] = system: green foxtail; assay: Test Example 3: weedkilling efficacy through soil treatment; E: green foxtail; settings: treatment dosage 315 g/ha
Summary of the method: as §2

[20] = system: crabgrass; assay: Test Example 4: weedkilling efficacy by foliar treatment; D: crabgrass; settings: treatment dosage 315 g/ha
Summary of the method: as §4

[21] = system: crabgrass; assay: Test Example 3: weedkilling efficacy through soil treatment; D: crabgrass; settings: treatment dosage 315 g/ha
Summary of the method: as §2

[22] = system: fig-leafed goosefoot; assay: Test Example 4: weedkilling efficacy by foliar treatment; M: fig-leafed goosefoot; settings: treatment dosage 315 g/ha
Summary of the method: as §4

[23] = system: barnyard grass; assay: Test Example 2: weedkilling efficacy, growth period weed treatment in the submerged state; A: barnyard grass; settings: treatment dosage 252 g/ha
Summary of the method: as §3

[24] = system: soybean; assay: Test Example 3: soil treatment, effect on crop; d: soybean; settings: treatment dosage 315 g/ha
Summary of the method: as §2

[25] = system: catchweed; assay: Test Example 4: weedkilling efficacy by foliar treatment; O: catchweed; settings: treatment dosage 315 g/ha
Summary of the method: as §4

[26] = system: chickweed; assay: Test Example 4: weedkilling efficacy by foliar treatment; N: chickweed; settings: treatment dosage 315 g/ha
Summary of the method: as §4

[27] = system: birds-eye speedwell; assay: Test Example 3: weedkilling efficacy through soil treatment; p: birds-eye speedwell; settings: treatment dosage 315 g/ha
Summary of the method: as §2

[28] = system: redroot pigweed; assay: Test Example 4: weedkilling efficacy by foliar treatment; L: redroot pigweed; settings: treatment dosage 315 g/ha
Summary of the method: as §4

[29] = system: fig-leafed goosefoot; assay: Test Example 3: weedkilling efficacy through soil treatment; M: fig-leafed goosefoot; settings: treatment dosage 315 g/ha
Summary of the method: as §2

[30] = system: Indian mallow; assay: Test Example 3: weedkilling efficacy through soil treatment; K: Indian mallow; settings: treatment dosage 315 g/ha
Summary of the method: as §2

[31] = system: redroot pigweed; assay: Test Example 3: weedkilling efficacy through soil treatment; L: redroot pigweed; settings: treatment dosage 315 g/ha
Summary of the method: as §2

[32] = system: corn; assay: Test Example 4: foliar treatment, effect on crop; c: corn; settings: treatment dosage 315 g/ha
Summary of the method: as §4

[33] = system: catchweed; assay: Test Example 3: weedkilling efficacy through soil treatment; O: catchweed; settings: treatment dosage 315 g/ha
Summary of the method: as §2

[34] = system: directly sown rice; assay: Test Example 4: foliar treatment, effect on crop; b: directly sown rice; settings: treatment dosage 315 g/ha
Summary of the method: as §4

[35] = system: green foxtail; assay: Test Example 4: weedkilling efficacy by foliar treatment; E: green foxtail; settings: treatment dosage 315 g/ha
Summary of the method: as §4

[36] = system: Italian ryegrass; assay: Test Example 4: weedkilling efficacy by foliar treatment; I: Italian ryegrass; settings: treatment dosage 315 g/ha
Summary of the method: as §4

[37] = system: beet; assay: Test Example 3: soil treatment, effect on crop; f: beet; settings: treatment dosage 315 g/ha
Summary of the method: as §2

[38] = system: wild oat; assay: Test Example 3: weedkilling efficacy through soil treatment; G: wild oat; settings: treatment dosage 315 g/ha
Summary of the method: as §2

[39] = system: corn; assay: Test Example 3: soil treatment, effect on crop; c: corn; settings: treatment dosage 315 g/ha
Summary of the method: as §2

| SMILES | A (barnyard grass) weedkilling efficacy grade [1] | H (black-grass) weedkilling efficacy grade [2] | a (transplanted rice) effect on crop grade [3] | b (directly sown rice) effect on crop grade [4] | e (wheat) effect on crop grade [5] | B (bulrush) weedkilling efficacy grade [6] | P (birds-eye speedwell) weedkilling efficacy grade [7] | e (wheat) effect on crop grade [8] | d (soybean) effect on crop grade [9] | C (oval-leafed pondweed) weedkilling efficacy grade [10] | B (bulrush) weedkilling efficacy grade [11] | H (black-grass) weedkilling efficacy grade [12] | I (Italian ryegrass) weedkilling efficacy grade [13] | G (wild oat) weedkilling efficacy grade [14] | f (beet) effect on crop grade [15] | N (chickweed) weedkilling efficacy grade [16] | C (oval-leafed pondweed) weedkilling efficacy grade [17] | K (Indian mallow) weedkilling efficacy grade [18] | E (green foxtail) weedkilling efficacy grade [19] | D (crabgrass) weedkilling efficacy grade [20] | other results |
| --- | --- | --- | --- | --- | --- | --- | --- | --- | --- | --- | --- | --- | --- | --- | --- | --- | --- | --- | --- | --- | --- |
| CC1=C(c2ccccc2)C(=O)N(C(C)(C)C(=O)Nc2cc(F)ccn2)CO1 [B-2-25] | 5 (weed kill ratio 90% or more, (practically complete withering)) | 5 (weed kill ratio 90% or more, (practically complete withering)) | 2 (weed kill ratio 20% or more, less than 40%) | 5 (weed kill ratio 90% or more, (practically complete withering)) | 1 (weed kill ratio 5% or more, less than 20%) | 5 (weed kill ratio 90% or more, (practically complete withering)) | 5 (weed kill ratio 90% or more, (practically complete withering)) | 0 (weed kill ratio 5% or less (practically no effect)) | 3 (weed kill ratio 40% or more, less than 70%) | 5 (weed kill ratio 90% or more, (practically complete withering)) | 5 (weed kill ratio 90% or more, (practically complete withering)) | 5 (weed kill ratio 90% or more, (practically complete withering)) | 5 (weed kill ratio 90% or more, (practically complete withering)) | 5 (weed kill ratio 90% or more, (practically complete withering)) | 3 (weed kill ratio 40% or more, less than 70%) | 4 (weed kill ratio 70% or more, less than 90%) | 5 (weed kill ratio 90% or more, (practically complete withering)) | 4 (weed kill ratio 70% or more, less than 90%) | 5 (weed kill ratio 90% or more, (practically complete withering)) | 5 (weed kill ratio 90% or more, (practically complete withering)) | D (crabgrass) weedkilling efficacy grade [21]: 5 (weed kill ratio 90% or more, (practically complete withering)); M (fig-leafed goosefoot) weedkilling efficacy grade [22]: 4 (weed kill ratio 70% or more, less than 90%); A (barnyard grass) weedkilling efficacy grade [23]: 5 (weed kill ratio 90% or more, (practically complete withering)); d (soybean) effect on crop grade [24]: 0 (weed kill ratio 5% or less (practically no effect)); O (catchweed) weedkilling efficacy grade [25]: 5 (weed kill ratio 90% or more, (practically complete withering)); N (chickweed) weedkilling efficacy grade [26]: 4 (weed kill ratio 70% or more, less than 90%); P (birds-eye speedwell) weedkilling efficacy grade [27]: 5 (weed kill ratio 90% or more, (practically complete withering)); L (redroot pigweed) weedkilling efficacy grade [28]: 2 (weed kill ratio 20% or more, less than 40%); M (fig-leafed goosefoot) weedkilling efficacy grade [29]: 4 (weed kill ratio 70% or more, less than 90%); K (Indian mallow) weedkilling efficacy grade [30]: 4 (weed kill ratio 70% or more, less than 90%); L (redroot pigweed) weedkilling efficacy grade [31]: 3 (weed kill ratio 40% or more, less than 70%); c (corn) effect on crop grade [32]: 3 (weed kill ratio 40% or more, less than 70%); O (catchweed) weedkilling efficacy grade [33]: 5 (weed kill ratio 90% or more, (practically complete withering)); b (directly sown rice) effect on crop grade [34]: 5 (weed kill ratio 90% or more, (practically complete withering)); E (green foxtail) weedkilling efficacy grade [35]: 5 (weed kill ratio 90% or more, (practically complete withering)); I (Italian ryegrass) weedkilling efficacy grade [36]: 5 (weed kill ratio 90% or more, (practically complete withering)); f (beet) effect on crop grade [37]: 2 (weed kill ratio 20% or more, less than 40%); G (wild oat) weedkilling efficacy grade [38]: 5 (weed kill ratio 90% or more, (practically complete withering)); c (corn) effect on crop grade [39]: 3 (weed kill ratio 40% or more, less than 70%) |
| COc1ccnc(NC(=O)C(C)(C)N2COC(C)=C(c3ccccc3)C2=O)c1 [B-2-63] | 5 (weed kill ratio 90% or more, (practically complete withering)) | 1 (weed kill ratio 5% or more, less than 20%) | 0 (weed kill ratio 5% or less (practically no effect)) | 0 (weed kill ratio 5% or less (practically no effect)) | 0 (weed kill ratio 5% or less (practically no effect)) | 4 (weed kill ratio 70% or more, less than 90%) | 1 (weed kill ratio 5% or more, less than 20%) | 0 (weed kill ratio 5% or less (practically no effect)) | 2 (weed kill ratio 20% or more, less than 40%) | 3 (weed kill ratio 40% or more, less than 70%) | 5 (weed kill ratio 90% or more, (practically complete withering)) | 0 (weed kill ratio 5% or less (practically no effect)) | 3 (weed kill ratio 40% or more, less than 70%) | 0 (weed kill ratio 5% or less (practically no effect)) | 0 (weed kill ratio 5% or less (practically no effect)) | 3 (weed kill ratio 40% or more, less than 70%) | 4 (weed kill ratio 70% or more, less than 90%) | 0 (weed kill ratio 5% or less (practically no effect)) | 4 (weed kill ratio 70% or more, less than 90%) | 3 (weed kill ratio 40% or more, less than 70%) | D (crabgrass) weedkilling efficacy grade [21]: 4 (weed kill ratio 70% or more, less than 90%); M (fig-leafed goosefoot) weedkilling efficacy grade [22]: 3 (weed kill ratio 40% or more, less than 70%); A (barnyard grass) weedkilling efficacy grade [23]: 3 (weed kill ratio 40% or more, less than 70%); d (soybean) effect on crop grade [24]: 0 (weed kill ratio 5% or less (practically no effect)); O (catchweed) weedkilling efficacy grade [25]: 2 (weed kill ratio 20% or more, less than 40%); N (chickweed) weedkilling efficacy grade [26]: 2 (weed kill ratio 20% or more, less than 40%); P (birds-eye speedwell) weedkilling efficacy grade [27]: 4 (weed kill ratio 70% or more, less than 90%); L (redroot pigweed) weedkilling efficacy grade [28]: 0 (weed kill ratio 5% or less (practically no effect)); M (fig-leafed goosefoot) weedkilling efficacy grade [29]: 3 (weed kill ratio 40% or more, less than 70%); K (Indian mallow) weedkilling efficacy grade [30]: 0 (weed kill ratio 5% or less (practically no effect)); L (redroot pigweed) weedkilling efficacy grade [31]: 1 (weed kill ratio 5% or more, less than 20%); c (corn) effect on crop grade [32]: 0 (weed kill ratio 5% or less (practically no effect)); O (catchweed) weedkilling efficacy grade [33]: 3 (weed kill ratio 40% or more, less than 70%); b (directly sown rice) effect on crop grade [34]: 0 (weed kill ratio 5% or less (practically no effect)); E (green foxtail) weedkilling efficacy grade [35]: 3 (weed kill ratio 40% or more, less than 70%); I (Italian ryegrass) weedkilling efficacy grade [36]: 1 (weed kill ratio 5% or more, less than 20%); f (beet) effect on crop grade [37]: 0 (weed kill ratio 5% or less (practically no effect)); G (wild oat) weedkilling efficacy grade [38]: 2 (weed kill ratio 20% or more, less than 40%); c (corn) effect on crop grade [39]: 0 (weed kill ratio 5% or less (practically no effect)) |
